The source of these data is ChEMBL document CHEMBL3596106, “Structure-activity relationship study of E6 as a novel necroptosis inducer” (Bioorg Med Chem Lett, 2015).

Experiment [1] deals with Jurkat. Put plainly: Induction of necroptosis in human Jurkat T cells incubated for 24 hrs by ATP-based cell viability assay. Format: functional.
The next experiment concerns Jurkat (Homo sapiens). Put plainly: Potency index, ratio of EC50 for E6 to EC50 for test compound for induction of necroptosis in human Jurkat T cells incubated for 24 hrs by ATP-based cell viability assay.
Experiment [2] relates to Jurkat. Nature of the experiment: Induction of necroptosis in human Jurkat T cells incubated for 24 hrs in presence of Nec-8 by ATP-based cell viability assay. The class given is functional.
The test system of experiment [3] is Jurkat. Put plainly: Induction of necroptosis in human Jurkat T cells incubated for 24 hrs in presence of caspase inhibitor zVAD.fmk by ATP-based cell viability assay. The class given is functional.
Experiment [4] relates to Jurkat. Put plainly: Induction of necroptosis in human Jurkat T cells incubated for 24 hrs in presence of RIPK1 inhibitor Nec-1 by ATP-based cell viability assay. The class given is functional.
Where [5] appears, read: Homo sapiens, Jurkat, 24 h, read-out: EC50.

The source made the active and inactive calls.

For the compound `COc1ccccc1-c1ccc(NCc2ccccc2O)cc1`, the concentration for a half-maximal effect (EC50) entry in the experiment on Jurkat [1] (jurkat) was “Not Active”.
As to `COC(=O)c1ccc(-c2ccc(NCc3ccccc3O)cc2)cc1`, in the experiment on Jurkat [1] (jurkat), the concentration for a half-maximal effect (EC50) entry is on record as “Not Active”.
Still for that read-out and setting: the same measure for `Oc1ccccc1CNc1ccc(-c2ccc(N3CCOCC3)cc2)nc1`: “Not Active”.
The same measure, in the same setting: next, `Oc1ccc(-c2ccc(NCc3ccccc3O)cc2)cc1`: “Not Active”; `Oc1ccccc1CNc1ccc(-c2ccc(-c3ccccc3)cc2)cc1`: “Not Active”.
`Oc1ccccc1CNc1ccc(-c2ccccc2)cn1`: the concentration giving a half-maximal response (EC50) result in the experiment on Jurkat [1] (jurkat) is recorded as “Not Active”.
On the same count and under the same terms, the same measure for `Oc1ccccc1CNc1ccc(N2CCNCC2)cc1`: “Not Active”.
On to `COc1ccc(-c2ccc(NCc3ccccc3O)cc2)cc1`, for which the EC50 in the experiment with Jurkat [1] (setting [5]) came to 580 nM. Moreover, the “Ratio EC50” value with Jurkat (Homo sapiens) was 17.
As for `Oc1ccccc1CNc1ccc(C2CCCCC2)cc1`, in the experiment on Jurkat [1] (setting [5]), the EC50 came to 8800 nM. For the same compound, the outcome with Jurkat [2] was inactive. For the same compound, the outcome with Jurkat [3] and in the experiment with Jurkat [4] was Active.
For the compound `Oc1ccccc1CCNc1ccc(C2CCCCC2)cc1`, in the experiment on Jurkat [1] (jurkat), the 50% effective concentration (EC50) result is on record as “Not Active”.
For `Oc1ccccc1CNc1ccc(-c2cccc(F)c2)cc1`, the concentration for a half-maximal effect (EC50) with Jurkat [1] (setting [5]) stood at 2020 nM.
Consider `Cc1ccc(-c2ccc(NCc3ccccc3O)cn2)cc1`, for which the half-maximal effective concentration (EC50) entry with Jurkat [1] (jurkat) is recorded as “Not Active”.
Still for that read-out and setting: the same measure for `Oc1cc(I)ccc1CNc1ccc(C2CCCCC2)cc1`: “Not Active”.
`CCOc1ccc(-c2ccc(NCc3ccccc3O)cc2)cc1F`: the EC50 in the experiment with Jurkat [1] (setting [5]) came out at 2530 nM.
Consider `Oc1ccccc1CNc1ccc(N2CCCCC2)cc1`, for which, in the experiment with Jurkat [1] (jurkat), the concentration for a half-maximal effect (EC50) entry is “Not Active”.
With `Cc1cc(NCc2ccccc2O)ccc1-c1ccccc1`, the EC50 in the experiment on Jurkat [1] (setting [5]) is 8610 nM.
Same read-out and setting: next, `Oc1ccccc1CNc1ccc(-c2ccccc2)nc1`: 840 nM; `CCSc1ccc(-c2ccc(NCc3ccccc3O)cn2)cc1`: 1920 nM.
As for `N#Cc1ccccc1-c1ccc(NCc2ccccc2O)cc1`, the concentration giving a half-maximal response (EC50) entry in the experiment with Jurkat [1] (jurkat) is listed as “Not Active”.
For `Oc1ccccc1CNc1ccc(-c2ccc(Cl)cc2)cc1`, the EC50 with Jurkat [1] (setting [5]) turned out to be 2390 nM.
As for `COc1ccc(CNc2ccc(C3CCCCC3)cc2)c(O)c1`, the concentration for a half-maximal effect (EC50) result in the experiment with Jurkat [1] (jurkat) was “Not Active”.
As to `Oc1ccccc1CNc1ccc(-c2ccc(OC(F)(F)F)cc2)cc1`, the EC50 entry with Jurkat [1] (jurkat) was “Not Active”.
Still for that read-out and setting: the same measure for `COc1ccccc1CNc1ccc(C2CCCCC2)cc1`: “Not Active”; for `Oc1cc(C(F)(F)F)ccc1CNc1ccc(C2CCCCC2)cc1`: “Not Active”.
For the compound `Oc1cc(-c2ccccc2)ccc1CNc1ccc(C2CCCCC2)cc1`, the EC50 entry in the experiment on Jurkat [1] (jurkat) was “Not Active”.
Still for that read-out and setting: the same measure for `O=[N+]([O-])c1ccc(NCc2ccccc2O)cc1`: “Not Active”; for `Oc1ccccc1CNc1ccc(-c2cccc(OC(F)(F)F)c2)cc1`: “Not Active”.
`CC(C)Oc1ccc(-c2ccc(NCc3ccccc3O)cc2)cc1`: the EC50 with Jurkat [1] (setting [5]) worked out at 5940 nM.
As for `Oc1ccccc1CNc1ccc(-c2ccc(C(F)(F)F)cc2)cc1`, the EC50 entry in the experiment on Jurkat [1] (jurkat) is listed as “Not Active”.
Take `Oc1ccccc1CNc1ccc(-c2ccccc2)cc1`: the half-maximal effective concentration (EC50) in the experiment on Jurkat [1] (setting [5]) is 1820 nM. Further, the “Ratio EC50” value in the experiment on Jurkat (Homo sapiens) was found to be 5.
Turning to `CCCOc1ccc(-c2ccc(NCc3ccccc3O)cc2)cc1`, the EC50 entry in the experiment on Jurkat [1] (jurkat) is “Not Active”.
The same measure, in the same setting: next, `Oc1ccccc1CCc1ccc(C2CCCCC2)cc1`: “Not Active”.
On to `COc1ccc(-c2ccc(NCc3ccccc3O)cn2)cc1`, for which, in the experiment on Jurkat [1] (setting [5]), the EC50 is 4760 nM.
On to `CC(Nc1ccc(C2CCCCC2)cc1)c1ccccc1O` (stereo not given), for which the concentration for a half-maximal effect (EC50) entry with Jurkat [1] (jurkat) is given as “Not Active”.
On the same count and under the same terms, next, `Oc1ccccc1CNc1ccccc1`: “Not Active”; `Oc1cccc(-c2ccc(NCc3ccccc3O)cc2)c1`: “Not Active”; `Oc1cc(F)ccc1CNc1ccc(C2CCCCC2)cc1`: “Not Active”.
Still for that read-out and setting: the same measure for `Oc1ccccc1CNc1ccc(N2CCCC2)cc1`: “Not Active”; for `O=C(Nc1ccc(C2CCCCC2)cc1)c1ccccc1O`: “Not Active”.
As for `Oc1ccccc1CNc1ccc(-c2cccc(Cl)c2)cc1`, the EC50 with Jurkat [1] (setting [5]) was 6200 nM.
With `Oc1ccc(CNc2ccc(C3CCCCC3)cc2)cc1`, in the experiment with Jurkat [1] (jurkat), the EC50 entry was “Not Active”.
For the compound `Oc1ccccc1CNc1ccc(-c2ccccc2)c(F)c1`, in the experiment on Jurkat [1] (setting [5]), the 50% effective concentration (EC50) came out at 2850 nM.
Consider `Oc1ccccc1CNc1nc(-c2ccccc2)cs1`, for which the EC50 result in the experiment on Jurkat [1] (jurkat) is on record as “Not Active”.
Still for that read-out and setting: next, `Cc1ccc(O)c(CNc2ccc(C3CCCCC3)cc2)c1`: “Not Active”; `Oc1ccccc1CNc1ccc(-c2ccc(Cl)cc2)nc1`: “Not Active”; `CCOc1ccc(-c2ccc(NCc3ccccc3O)cn2)cc1`: “Not Active”.
On to `Oc1ccccc1CNc1ccc(-c2cccc(OCc3ccccc3)c2)cc1`, for which, in the experiment with Jurkat [1] (jurkat), the EC50 entry is recorded as “Not Active”.
The same measure, in the same setting: next, `N#Cc1ccc(-c2ccc(NCc3ccccc3O)cc2)cc1`: “Not Active”.
The same measure, in the same setting: next, `Oc1ccccc1/C=N/c1ccc(C2CCCCC2)cc1`: “Not Active”.
As to `Cc1ccc(CNc2ccc(C3CCCCC3)cc2)c(O)c1`, the EC50 result in the experiment on Jurkat [1] (jurkat) is “Not Active”.
Turning to `COc1cccc(-c2ccc(NCc3ccccc3O)cc2)c1`, in the experiment with Jurkat [1] (jurkat), the EC50 result is “Not Active”.
For `CCCc1ccc(-c2ccc(NCc3ccccc3O)cc2)cc1`, the EC50 in the experiment with Jurkat [1] (setting [5]) worked out at 2390 nM.
Same read-out and setting: next, `Oc1ccccc1CNc1ccc(-c2ccc(F)cc2)cc1`: 3860 nM.
Take `CCOc1cccc(-c2ccc(NCc3ccccc3O)cc2)c1`: the concentration giving a half-maximal response (EC50) result with Jurkat [1] (jurkat) is “Not Active”.
Take `Cc1cc(-c2ccccc2)ccc1NCc1ccccc1O`: the EC50 result in the experiment with Jurkat [1] (jurkat) is recorded as “Not Active”.
Still for that read-out and setting: next, `CC(C)(C)c1ccc(-c2ccc(NCc3ccccc3O)cc2)cc1`: “Not Active”.
Consider `Oc1ccccc1CNc1ccc(-c2ccccc2F)cc1`, for which the EC50 in the experiment with Jurkat [1] (setting [5]) was found to be 2150 nM.
On to `Oc1ccccc1CNc1cc(-c2ccccc2)no1`, for which the concentration for a half-maximal effect (EC50) result in the experiment on Jurkat [1] (jurkat) is “Not Active”.
The same measure, in the same setting: the same measure for `CN1CCN(c2ccc(NCc3ccccc3O)cc2)CC1`: “Not Active”.
Take `CCOc1ccc(-c2ccc(NCc3ccccc3O)cc2)cc1`: in the experiment with Jurkat [1] (setting [5]), the half-maximal effective concentration (EC50) is 520 nM. In the experiment with Jurkat (Homo sapiens), the “Ratio EC50” value is 17.
On to `CN(Cc1ccccc1O)c1ccc(C2CCCCC2)cc1`, for which the EC50 entry with Jurkat [1] (jurkat) is reported as “Not Active”.
The same measure, in the same setting: next, `Oc1ccccc1CNc1ccc(-c2ccccc2Cl)cc1`: “Not Active”.
As for `Cc1ccccc1-c1ccc(NCc2ccccc2O)cc1`, the concentration for a half-maximal effect (EC50) in the experiment on Jurkat [1] (setting [5]) came out at 5220 nM.
Take `Oc1ccccc1CNc1ccc(F)cc1`: the 50% effective concentration (EC50) entry with Jurkat [1] (jurkat) was “Not Active”.
On to `Cc1cccc(CNc2ccc(C3CCCCC3)cc2)c1O`, for which, in the experiment on Jurkat [1] (jurkat), the concentration for a half-maximal effect (EC50) entry is on record as “Not Active”.
Same read-out and setting: the same measure for `CC(=O)c1ccc(-c2ccc(NCc3ccccc3O)cc2)cc1`: “Not Active”; for `Oc1ccccc1NCc1ccc(C2CCCCC2)cc1`: “Not Active”.
`Oc1ccccc1CNc1ccc(-c2ccc(F)cc2)nc1`: the EC50 in the experiment with Jurkat [1] (setting [5]) was 2590 nM.
For the compound `Oc1ccccc1Nc1ccc(C2CCCCC2)cc1`, the EC50 result in the experiment on Jurkat [1] (jurkat) is on record as “Not Active”.
With `c1ccc(CNc2ccc(C3CCCCC3)cc2)cc1`, the 50% effective concentration (EC50) entry in the experiment on Jurkat [1] (jurkat) was “Not Active”.
Regarding `Oc1ccccc1CNc1ccc(-c2ccccc2)cc1F`, in the experiment on Jurkat [1] (setting [5]), the EC50 amounted to 5350 nM.
Same read-out and setting: next, `Cc1cccc(-c2ccc(NCc3ccccc3O)cc2)c1`: 9190 nM; `Cc1ccc(-c2ccc(NCc3ccccc3O)cc2)cc1`: 3790 nM.
`CCSc1ccc(-c2ccc(NCc3ccccc3O)cc2)cc1`: the concentration for a half-maximal effect (EC50) in the experiment with Jurkat [1] (setting [5]) came out at 1980 nM.
